# Columns and labels:
# Assay type in all cases: in vivo
# Details in all cases: treatment dosage 320 g/ha
# rapeseed [1] = test: Test Example 3: soil treatment, effect on crop; g: rapeseed
# How it was run: (§1)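 Crop and weed responses were judged three weeks after a uniform surface spray of the water-diluted emulsion at the given g/ha rate. Seeds sat beneath about 1.5 cm of sterilized diluvial soil, and boxes stood in a greenhouse at 25 to 30° C.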
# oval-leafed pondweed [2] = test: Test Example 1: weedkilling efficacy, preemergent weed treatment in the submerged state; C: oval-leafed pondweed
# How it was run: (§2)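 Visual scores against set criteria were taken 3 weeks after treatment. Compounds, as diluted emulsions at specified g/ha, went onto the water surface of 4 cm-flooded alluvial soil pots on the day weeds were sown and 2.5-leaf rice was transplanted; greenhouse held 25–30 °C.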
# birds-eye speedwell [3] = test: Test Example 4: weedkilling efficacy by foliar treatment; p: birds-eye speedwell
# How it was run: (§3)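 Seeds are spot-sown into sterilized diluvial soil and covered with about 1.5 cm of soil. After 14 days' greenhouse growth at 25 to 30° C, plants are sprayed on stems and leaves with diluted emulsion at the stated g/ha rate, then scored at 3 weeks.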
# wheat [4] = test: Test Example 3: soil treatment, effect on crop; e: wheat
# How it was run: as §1
# common wind-grass [5] = test: Test Example 3: weedkilling efficacy through soil treatment; J: common wind-grass
# How it was run: as §1
# crabgrass [6] = test: Test Example 3: weedkilling efficacy through soil treatment; D: crabgrass
# How it was run: as §1
# birds-eye speedwell [7] = test: Test Example 3: weedkilling efficacy through soil treatment; p: birds-eye speedwell
# How it was run: as §1
# beet [8] = test: Test Example 4: foliar treatment, effect on crop; f: beet
# How it was run: as §3
# transplanted rice = test: Test Example 1: preemergent weed treatment in the submerged state, effect on crop; a: transplanted rice
# How it was run: as §2
# rapeseed [9] = test: Test Example 4: foliar treatment, effect on crop; g: rapeseed
# How it was run: as §3
# chickweed [10] = test: Test Example 3: weedkilling efficacy through soil treatment; N: chickweed
# How it was run: as §1
# black-grass [11] = test: Test Example 3: weedkilling efficacy through soil treatment; H: black-grass
# How it was run: as §1
# catchweed [12] = test: Test Example 4: weedkilling efficacy by foliar treatment; O: catchweed
# How it was run: as §3
# barnyard grass [13] = test: Test Example 4: weedkilling efficacy by foliar treatment; F: barnyard grass
# How it was run: as §3
# catchweed [14] = test: Test Example 3: weedkilling efficacy through soil treatment; O: catchweed
# How it was run: as §1
# oval-leafed pondweed [15] = test: Test Example 2: weedkilling efficacy, growth period weed treatment in the submerged state; C: oval-leafed pondweed
# How it was run: (§4)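 Barnyard grass, bulrush and oval-leafed pondweed sown in alluvial soil under 4 cm flooding, greenhouse 25 to 30° C. At 1-2 leaf stage, water-diluted emulsion applied to the water surface at stated g/ha dosages; effects scored 3 weeks later.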
# wheat [16] = test: Test Example 4: foliar treatment, effect on crop; e: wheat
# How it was run: as §3
# crabgrass [17] = test: Test Example 4: weedkilling efficacy by foliar treatment; D: crabgrass
# How it was run: as §3
# redroot pigweed [18] = test: Test Example 4: weedkilling efficacy by foliar treatment; L: redroot pigweed
# How it was run: as §3
# beet [19] = test: Test Example 3: soil treatment, effect on crop; f: beet
# How it was run: as §1
# green foxtail [20] = test: Test Example 3: weedkilling efficacy through soil treatment; E: green foxtail
# How it was run: as §1
# wild oat [21] = test: Test Example 4: weedkilling efficacy by foliar treatment; G: wild oat
# How it was run: as §3
# fig-leafed goosefoot [22] = test: Test Example 3: weedkilling efficacy through soil treatment; M: fig-leafed goosefoot
# How it was run: as §1
# directly sown rice [23] = test: Test Example 4: foliar treatment, effect on crop; b: directly sown rice
# How it was run: as §3
# barnyard grass [24] = test: Test Example 2: weedkilling efficacy, growth period weed treatment in the submerged state; A: barnyard grass
# How it was run: as §4
# green foxtail [25] = test: Test Example 4: weedkilling efficacy by foliar treatment; E: green foxtail
# How it was run: as §3
# black-grass [26] = test: Test Example 4: weedkilling efficacy by foliar treatment; H: black-grass
# How it was run: as §3
# soybean [27] = test: Test Example 4: foliar treatment, effect on crop; d: soybean
# How it was run: as §3
# bulrush = test: Test Example 1: weedkilling efficacy, preemergent weed treatment in the submerged state; B: bulrush
# How it was run: as §2
# Italian ryegrass [28] = test: Test Example 4: weedkilling efficacy by foliar treatment; I: Italian ryegrass
# How it was run: as §3
# corn [29] = test: Test Example 3: soil treatment, effect on crop; c: corn
# How it was run: as §1
# wild oat [30] = test: Test Example 3: weedkilling efficacy through soil treatment; G: wild oat
# How it was run: as §1
# Indian mallow [31] = test: Test Example 4: weedkilling efficacy by foliar treatment; K: Indian mallow
# How it was run: as §3
# soybean [32] = test: Test Example 3: soil treatment, effect on crop; d: soybean
# How it was run: as §1
# barnyard grass [33] = test: Test Example 3: weedkilling efficacy through soil treatment; F: barnyard grass
# How it was run: as §1
# redroot pigweed [34] = test: Test Example 3: weedkilling efficacy through soil treatment; L: redroot pigweed
# How it was run: as §1
# chickweed [35] = test: Test Example 4: weedkilling efficacy by foliar treatment; N: chickweed
# How it was run: as §3
# corn [36] = test: Test Example 4: foliar treatment, effect on crop; c: corn
# How it was run: as §3
# Italian ryegrass [37] = test: Test Example 3: weedkilling efficacy through soil treatment; I: Italian ryegrass
# How it was run: as §1
# fig-leafed goosefoot [38] = test: Test Example 4: weedkilling efficacy by foliar treatment; M: fig-leafed goosefoot
# How it was run: as §3
# Indian mallow [39] = test: Test Example 3: weedkilling efficacy through soil treatment; K: Indian mallow
# How it was run: as §1
# common wind-grass [40] = test: Test Example 4: weedkilling efficacy by foliar treatment; J: common wind-grass
# How it was run: as §3
# directly sown rice [41] = test: Test Example 3: soil treatment, effect on crop; b: directly sown rice
# How it was run: as §1
# barnyard grass [42] = test: Test Example 1: weedkilling efficacy, preemergent weed treatment in the submerged state; A: barnyard grass
# How it was run: as §2
smiles,measurement,setting,value
CC1=C(c2ccccc2)C(=O)N(C(C)(C)C(=O)Nc2ccc3ccccc3n2)CO1 [B-1-18],g (rapeseed) effect on crop grade,rapeseed [1],0 (weed kill ratio 5% or less (practically no effect))
same,C (oval-leafed pondweed) weedkilling efficacy grade,oval-leafed pondweed [2],"5 (weed kill ratio 90% or more, (practically complete withering))"
same,P (birds-eye speedwell) weedkilling efficacy grade,birds-eye speedwell [3],"4 (weed kill ratio 70% or more, less than 90%)"
same,e (wheat) effect on crop grade,wheat [4],0 (weed kill ratio 5% or less (practically no effect))
same,J (common wind-grass) weedkilling efficacy grade,common wind-grass [5],"5 (weed kill ratio 90% or more, (practically complete withering))"
same,D (crabgrass) weedkilling efficacy grade,crabgrass [6],"3 (weed kill ratio 40% or more, less than 70%)"
same,P (birds-eye speedwell) weedkilling efficacy grade,birds-eye speedwell [7],0 (weed kill ratio 5% or less (practically no effect))
same,f (beet) effect on crop grade,beet [8],0 (weed kill ratio 5% or less (practically no effect))
same,a (transplanted rice) effect on crop grade,transplanted rice,0 (weed kill ratio 5% or less (practically no effect))
same,g (rapeseed) effect on crop grade,rapeseed [9],"3 (weed kill ratio 40% or more, less than 70%)"
same,N (chickweed) weedkilling efficacy grade,chickweed [10],0 (weed kill ratio 5% or less (practically no effect))
same,H (black-grass) weedkilling efficacy grade,black-grass [11],"2 (weed kill ratio 20% or more, less than 40%)"
same,O (catchweed) weedkilling efficacy grade,catchweed [12],"4 (weed kill ratio 70% or more, less than 90%)"
same,F (barnyard grass) weedkilling efficacy grade,barnyard grass [13],"2 (weed kill ratio 20% or more, less than 40%)"
same,O (catchweed) weedkilling efficacy grade,catchweed [14],0 (weed kill ratio 5% or less (practically no effect))
same,C (oval-leafed pondweed) weedkilling efficacy grade,oval-leafed pondweed [15],"5 (weed kill ratio 90% or more, (practically complete withering))"
same,e (wheat) effect on crop grade,wheat [16],0 (weed kill ratio 5% or less (practically no effect))
same,D (crabgrass) weedkilling efficacy grade,crabgrass [17],"2 (weed kill ratio 20% or more, less than 40%)"
same,L (redroot pigweed) weedkilling efficacy grade,redroot pigweed [18],"2 (weed kill ratio 20% or more, less than 40%)"
same,f (beet) effect on crop grade,beet [19],0 (weed kill ratio 5% or less (practically no effect))
same,E (green foxtail) weedkilling efficacy grade,green foxtail [20],"4 (weed kill ratio 70% or more, less than 90%)"
same,G (wild oat) weedkilling efficacy grade,wild oat [21],0 (weed kill ratio 5% or less (practically no effect))
same,M (fig-leafed goosefoot) weedkilling efficacy grade,fig-leafed goosefoot [22],0 (weed kill ratio 5% or less (practically no effect))
same,b (directly sown rice) effect on crop grade,directly sown rice [23],0 (weed kill ratio 5% or less (practically no effect))
same,A (barnyard grass) weedkilling efficacy grade,barnyard grass [24],"4 (weed kill ratio 70% or more, less than 90%)"
same,E (green foxtail) weedkilling efficacy grade,green foxtail [25],"3 (weed kill ratio 40% or more, less than 70%)"
same,H (black-grass) weedkilling efficacy grade,black-grass [26],"1 (weed kill ratio 5% or more, less than 20%)"
same,d (soybean) effect on crop grade,soybean [27],0 (weed kill ratio 5% or less (practically no effect))
same,B (bulrush) weedkilling efficacy grade,bulrush,"5 (weed kill ratio 90% or more, (practically complete withering))"
same,I (Italian ryegrass) weedkilling efficacy grade,Italian ryegrass [28],"1 (weed kill ratio 5% or more, less than 20%)"
same,c (corn) effect on crop grade,corn [29],0 (weed kill ratio 5% or less (practically no effect))
same,G (wild oat) weedkilling efficacy grade,wild oat [30],0 (weed kill ratio 5% or less (practically no effect))
same,K (Indian mallow) weedkilling efficacy grade,Indian mallow [31],"3 (weed kill ratio 40% or more, less than 70%)"
same,d (soybean) effect on crop grade,soybean [32],0 (weed kill ratio 5% or less (practically no effect))
same,F (barnyard grass) weedkilling efficacy grade,barnyard grass [33],"1 (weed kill ratio 5% or more, less than 20%)"
same,L (redroot pigweed) weedkilling efficacy grade,redroot pigweed [34],0 (weed kill ratio 5% or less (practically no effect))
same,N (chickweed) weedkilling efficacy grade,chickweed [35],"3 (weed kill ratio 40% or more, less than 70%)"
same,c (corn) effect on crop grade,corn [36],"1 (weed kill ratio 5% or more, less than 20%)"
same,I (Italian ryegrass) weedkilling efficacy grade,Italian ryegrass [37],"2 (weed kill ratio 20% or more, less than 40%)"
same,M (fig-leafed goosefoot) weedkilling efficacy grade,fig-leafed goosefoot [38],"3 (weed kill ratio 40% or more, less than 70%)"
same,K (Indian mallow) weedkilling efficacy grade,Indian mallow [39],0 (weed kill ratio 5% or less (practically no effect))
same,J (common wind-grass) weedkilling efficacy grade,common wind-grass [40],"3 (weed kill ratio 40% or more, less than 70%)"
same,b (directly sown rice) effect on crop grade,directly sown rice [41],0 (weed kill ratio 5% or less (practically no effect))
same,A (barnyard grass) weedkilling efficacy grade,barnyard grass [42],"5 (weed kill ratio 90% or more, (practically complete withering))"

# Source: patent US9738634B2, “Heterocyclic amide compound and herbicide” (SYNGENTA PARTICIPATIONS AG, priority 2013, dated 2017)
